“Also recorded” adds a separate entry of the source. Like-named read-outs stand apart in the source and are kept apart here.
Assays:
transketolase = biological target: T1, transketolase (Homo sapiens, UniProt P29401); test: transketolase activity in cell based assay (lysates of N3PT-treated cells, GAPDH-coupled NADH readout)
T1 construct: Cells were lysed by vortexing and cell extracts assayed for transketolase activity; endogenous in cells; other cell lines not specified
T1 sequence (P29401 1-623): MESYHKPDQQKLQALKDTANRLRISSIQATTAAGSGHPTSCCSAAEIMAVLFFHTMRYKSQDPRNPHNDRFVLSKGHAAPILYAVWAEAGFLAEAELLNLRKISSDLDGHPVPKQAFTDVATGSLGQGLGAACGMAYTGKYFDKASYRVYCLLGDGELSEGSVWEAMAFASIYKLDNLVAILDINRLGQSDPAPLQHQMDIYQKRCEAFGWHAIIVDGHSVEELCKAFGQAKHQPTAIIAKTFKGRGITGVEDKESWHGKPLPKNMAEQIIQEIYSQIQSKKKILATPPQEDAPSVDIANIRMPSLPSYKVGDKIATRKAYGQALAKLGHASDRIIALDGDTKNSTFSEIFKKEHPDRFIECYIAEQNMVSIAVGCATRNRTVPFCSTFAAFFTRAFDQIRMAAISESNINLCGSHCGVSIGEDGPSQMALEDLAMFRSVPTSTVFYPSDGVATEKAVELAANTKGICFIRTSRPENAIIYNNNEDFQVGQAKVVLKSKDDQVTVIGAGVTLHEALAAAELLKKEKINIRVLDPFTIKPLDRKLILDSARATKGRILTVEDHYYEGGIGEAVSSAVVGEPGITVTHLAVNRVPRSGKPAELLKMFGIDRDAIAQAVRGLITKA
Procedure: Human carcinoma cell lines, such as, but not restricted to, HCT116, HT1080, DLD-1, Rv22, MIA PA CA-2, HCT-15, and murine cell lines, CT26, 4T1 (all cell lines described are available from the ATCC), were cultured in standard conditions (37 C, 5% CO2) in DMEM media (10% FBS, 1% Penicillin-Streptomycin) and harvested at 60-80% confluency by trypsinization. Approximately 2 million cells were collected in an Eppendorf tube and washed 2 times (2×) with PBS by centrifugation and stored at −20° C. as cell pellets. Ice-cold lysis buffer (1 ml) (20 mM HEPES, pH 7.5, 1 mM EDTA, 0.2 g/l Triton X-100 and 0.2 g/L sodium deoxycholate, supplemented with 1 mM DTT and 1 mM PMSF just before use) was added to each cell pellet. Cells were lysed by vortexing and cell extracts assayed for transketolase activity at pH 7.5, by coupling a subsequent glyceraldehyde-3-phosphate dehydrogenase (GAPDH) reaction and measuring conversion of NAD to NADH (FIG. 1).
The assay was carried out as follows. […] of […] assay buffer containing final concentrations of 50 mM HEPES, 40 mM KCl, 2.5 mM MgCl2, 5 mM NaArsenate, 1 mM NAD, 2 unit/ml glyceraldehydes-3-phosphate dehydrogenase (GAPDH) was added to 80 μl of lysate. Reaction kinetics were monitored on a fluorescent plate reader to allow any possible background activity via GAPDH to burn out. Then 5 ul of substrate mix containing final concentrations of 0.5 mM ribose-5-phosphate and 0.5 mM xylulose-5-phosphate was added to initiate the reaction. The reaction kinetics were monitored using a fluorescent plate reader, and the slope of the initial linear range was recorded as the velocity of the reaction (FU/min).
TK, kGDH and PDH enzymes all utilize thiamine pyrophosphate (TPP) as a co-factor for their catalysis. Conventional cell culture media (e.g., DMEM, RPMI) have high levels of thiamine (12 μM and 3 μM, respectively). […]
Log-phase growing cells were trypsinized and resuspended in TDM. […] TK activities could be measured from ≧5000 cells in most cell lines tested. […]
Enzymatic inhibition was expressed as percent of control cells that were not treated with compounds. […]

[1] = biological target: purified apotransketolase; test: inhibition of purified apotransketolase; format: biochemical
Text: N3PT is a thiamine (vitamin B1) derivative. Thiamine pyrophosphate (TPP) is a co-factor for catalysis by the enzyme transketolase (as well as for the enzymes kGDH and PDH). […] A standard method for isolating and measuring the IC50 of apotransketolase is described in Konig et al., J. Biol. Chem. 269: 10879-82 (1994).

[2] = biological target: T2, glucose-6-phosphate dehydrogenase (G6PDH) (Mus musculus, UniProt Q00612); test: G6PDH activity in blood and tissues of N3PT-treated mice; format: in vivo
T2 construct: (G6PDH) in blood, spleen and brain after a single dose of N3PT in mice; from tissue; host or cells: blood, spleen and brain of Balb C nude mice

K562 = test: inhibition of proliferation of K562 cells; format: cell-based; details: K562 CML line
Procedure: The ability of N3PT to inhibit proliferation of these cell lines was then tested. LAMA84 was the most sensitive to N3PT, displaying an IC50 of 0.3 μM. The other cell lines, HCT116 and K562, were less sensitive, displaying an IC50 of approximately 2 μM in both cases. LAMA84 also had the highest TK activity (per cell) among these three cancer lines.

T2 sequence (Q00612 whole entry): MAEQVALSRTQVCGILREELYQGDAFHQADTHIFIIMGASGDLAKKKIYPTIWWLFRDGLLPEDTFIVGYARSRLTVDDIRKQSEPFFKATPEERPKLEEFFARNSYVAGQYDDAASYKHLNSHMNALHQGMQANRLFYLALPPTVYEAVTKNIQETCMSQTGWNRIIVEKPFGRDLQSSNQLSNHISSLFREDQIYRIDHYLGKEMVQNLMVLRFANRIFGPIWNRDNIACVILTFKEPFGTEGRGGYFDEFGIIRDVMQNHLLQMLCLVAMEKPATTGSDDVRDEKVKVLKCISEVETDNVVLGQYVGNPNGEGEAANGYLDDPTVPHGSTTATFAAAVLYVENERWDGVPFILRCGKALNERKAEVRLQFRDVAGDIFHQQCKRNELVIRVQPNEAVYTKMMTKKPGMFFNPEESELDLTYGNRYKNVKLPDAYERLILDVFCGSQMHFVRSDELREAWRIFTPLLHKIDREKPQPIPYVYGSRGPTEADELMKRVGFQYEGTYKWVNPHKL

- IC50 (transketolase; extracts from cells incubated with increasing concentrations of N3PT, read-out: IC50 transketolase (selectivity comparison, FIG. 9)): 7 nM
- IC50 (transketolase; production of glyceraldehyde-3-phosphate by transketolase, read-out: IC50 transketolase in cell assays): 27 nM
- IC50 [1]: 21 nM
- G6PDH activity after repeated treatment ([2]; 200 mg/kg/day, % of vehicle average): no effect on G6PDH activity
- IC50 (K562): ~2000 nM
SMILES: Cc1ccc(C[n+]2csc(CCO)c2C)c(N)n1 [N3PT, 3-[(2-amino-6-methyl-3-pyridinyl)methyl]-5-(2-hydroxyethyl)-4-methyl thiazolium]
- duration of inhibition of cellular transketolase activity (transketolase; cells treated two days, washed out, TK monitored days 3-7): long lasting; also recorded: persists for several days
- G6PDH activity after single dose ([2]; single dose 100 mg/kg i.p., blood, spleen, brain, 0-120 hr, 100 mg/kg): no effect on G6PDH in vivo; also recorded: little or no effect
